Measured values taken from patent US20210002725A1, “METHODS FOR THE DIAGNOSIS OF METABOLIC DISORDERS USING EPIMETABOLIC SHIFTERS, MULTIDIMENSIONAL INTRACELLULAR MOLECULES, OR ENVIRONMENTAL INFLUENCES” (Berg LLC, priority 2009, published 2021).
“And” between values parts separate entries of the source, which are not always exact repeats. Equal values may be shown once. “Also recorded” adds a separate entry of the source.

Experiments:
[1] = system: key proteins; experiment: Summary of key proteins modulated by Q10
[2] = system: SCC cells; experiment: Real-time PCR Apoptosis Array; type: cell-based; details: 100 μM Q10
Description: (§1) The control cells were untreated cells.
RNA was quantified by measuring Optical Density at 260 nm.

[3] = system: Succinate Dehydrogenase B (SDHB); experiment: Western blot of Succinate Dehydrogenase subunit B in mitochondrial preparations; type: cell-based; details: mitochondrial preparations of cancer cells
Experimental: The above blots were stripped by incubating for 30 minutes with methanol, followed by two 10 minute washes with TBS-T, then 30 minutes of incubation with Stripping buffer at 50 deg C., and followed by two washes with 100 ml or more of TBS-T for 30′ each. The blots were scanned in laser scanner to check for complete stripping. The blots were activated with methanol for 5 seconds, washed with water for 5 minutes, and TBST for 15 minutes. The blots were blocked for 1 hour with 5% blocking reagent in TBS-T at room temperature and then washed 3 times with TBS-T (1×-15′; 2×5′ each) and probed with the primary antibody for PKM2, SDHB or SDHC in 5% BSA in TBS-T by incubation overnight at 4 deg C. with gentle shaking. The primary antibody for SDHC (ABNOVA H00006391-M02; antimouse) was at 1:500 dilution. The primary antibody for SDHB was from Abcam ab4714-200; antimouse; at 1:1000 dilution. The primary antibody for Pyruvate Kinase M2 (PKM2) was from Novus Biologicals H00005315-DOIP; antirabbit; at 1:500 dilution. After incubation with primary antibodies, the membranes were washed 3 times with TBS-T (1×-15′; 2×5′ each) and probed with the secondary antibody (SDHB & C antimouse; and PKM2 antirabbit; 1:10,000 dilution) for 1 hon the orbital tilting shaker at room temperature. […]

[4] = system: ATP Citrate Lyase (ACL); experiment: Western blot of ATP Citrate Lyase levels in cells treated with Coenzyme Q10; type: cell-based, human; details: for ATP Citrate Lysase band Normalized Intensity: 48 h
Experimental: The whole cell pellets were resuspended one at a time in 1 mL of C7 buffer and transferred to labeled 15 mL tubes. The samples were then sonicated in the cold room on ice using 6 sonic pulses with the setting at #14. The samples were spun for a short time to 2500 g after sonication and the samples transferred to 2 ml tubes. The pH was verified of each sample (pH should be 9.0) using the foam remaining in the […] sample tubes.
After transfer each of the blots was placed in between 2 Whatman Filter papers and dried for 15-20 minutes. After drying the blots were labeled with the date, the type of samples and either blot 1 or blot 2 using a HB pencil. The molecular weight markers were outlined with the pencil and with single lines for the blue and a doublet for the colored markers. The blots were activated with methanol for 5 seconds, washed with water for 5 minutes, and TBST for 15 minutes. The blots were blocked for 1 hour with 5% blocking reagent in TBS-T at room temperature and then washed 3 times with TBS-T (1×-15′; 2×5′ each). Blot 1 was probed with the primary antibody for IDH1 (Cell Signaling #3997) in TBST with 5% BSA (at 1:1000 dilutions) and blot 2 with the rabbit polyclonal antibody for ATP Citrate Lyase in 5% BSA (Cell Signaling #4332) at 1:1000 dilution by incubation overnight at 4 deg C. with shaking. After the overnight incubation with primary antibodies, the blots were washed 3 times with TBS-T (1×-15′; 2×5′ each) and probed with the secondary antibody (antirabbit; 1:10,000 dilution) for 1 hon the orbital tilting shaker at room temperature. After 1 h of incubation with secondary antibodies, the blots were washed 3 times with TBS-T (1×-15′; 2×5′ each) and then incubated with ECF reagent for 5 mins and then each blot scanned with 5100 Fuji Laser scanner at 25 uM resolution, 16 bit, green laser, at 400V and at 500 V.
The samples were processed and run on a 4-12% Bis-Tris Novex NuPAGE gel as described above. The gels were run, transferred and stained essentially as described above.
The Isocitrate dehydrogenase blot was stripped by incubating for 30 minutes with methanol, followed by two 10 minute washes with TBS-T, then 30 minutes of incubation with stripping buffer at 50 deg C., and followed by two washes with 100 ml or more of TBS-T for 30′ each. The blot was scanned in laser scanner to check for complete stripping. The blot was activated with methanol for 5 seconds, washed with water for 5 minutes, and TBST for 15 minutes. The blot was blocked for 1 hour with 5% blocking reagent in TBS-T at room temperature and then washed 3 times with TBS-T (1×-15′; 2×5′ each). This was then probed with the rabbit polyclonal antibody for ATP Citrate Lyase in 5% BSA (Cell Signaling #4332) at 1:1000 dilution overnight at 4 deg C. with shaking. After the overnight incubation with primary antibody for ATP Citrate Lyase, the membrane was washed 3 times with TBS-T (1×-15′; 2×5′ each) and probed with the secondary antibody (antirabbit; 1:10,000 dilution) for 1 h on the orbital tilting shaker at room temperature. After 1 h of incubation with secondary antibodies, the blot was washed 3 times with TBS-T (1×-15′; 2×5′ each) and then incubated with ECF reagent for 5 minutes and then each blot scanned with 5100 Fuji Laser scanner at 25 uM resolution, 16 bit, green laser, at 400V and at 500 V.
In this experiment (western blot experiment 3), and in all of the experiments described below in this Example (i.e., western blot experiments 4 through 9), the cells were additionally treated with either 5 mM glucose (“5G”) or 22 mM glucose (“22G”). The samples derived from the cells were processed and run on a 4-12% Bis-Tris Novex NuPAGE gel as described above. The gels were run, transferred and stained essentially as described above.
The levels of IDH1, ATP citrate lyase and actin levels were determined by probing the blots with primary antibodies for IDH1, ATP citrate lyase and actin, essentially as described above.

[5] = system: SCC cells; experiment: Real-time PCR Heat Shock Protein Array; type: cell-based; details: 100 μM Q10
Description: as §1
Heat Shock Arrays were run for SCC cells and the data of regulated genes is summarized below in Table 13.

COC1=C(OC)C(=O)C(C/C=C(\C)CC/C=C(\C)CC/C=C(\C)CC/C=C(\C)CC/C=C(\C)CC/C=C(\C)CC/C=C(\C)CC/C=C(\C)CC/C=C(\C)CCC=C(C)C)=C(C)C1=O [Q10, Coenzyme Q10]
Key proteins modulated: Apoptotic response [1]: Bcl-xl, Bcl-xS, BNIP-2, Bcl-2, Birc6,; also recorded: Bcl-2-L11 (Bim), XIAP, BRAF, Bax,; also recorded: c-Jun, Bmf, PUMA, cMyc
Key proteins modulated: Biosynthetic pathway [1]: COQ1, COQ3, COQ6, prenyltransferase, and 4-hydroxybenzoate
Key proteins modulated: Oxidative phosphorylation metabolism [1]: Cytochrome c, complex I, complex II,; also recorded: complex III, complex IV,
Key proteins modulated: Pentose Phosphate Pathway [1]: transaldolase 1
Key proteins modulated: Transcription factors [1]: HNF4alpha
Regulation (mRNA) at 6 hours [2]: Down regulated at 6
Regulation (mRNA) at 24 hours ([2]; gene BAX): Up regulated at 24 hours.
Regulation (mRNA) at 24 hours ([2]; gene BCL2L1): hours and then up
Regulation (mRNA) at 24 hours ([2]; gene BNIP3): Down regulated at 24
SDH protein levels in the mitochondrion [3]: increase SDH protein levels
ATP Citrate Lysase band Normalized Intensity ([4]; HASMC (Table 34), 5 g, 50 μM): 23341
ATP Citrate Lysase band Normalized Intensity ([4]; HASMC (Table 34), 5 g, 100 μM): 25544
ATP Citrate Lysase band Normalized Intensity ([4]; HASMC (Table 34), 22 G, 50 μM): 21439
ATP Citrate Lysase band Normalized Intensity ([4]; HASMC (Table 34), 22 G, 100 μM): 19491
ATP Citrate Lysase band Normalized Intensity ([4]; HASMC (Table 35), 5 g, 50 μM): 12056
ATP Citrate Lysase band Normalized Intensity ([4]; HASMC (Table 35), 5 g, 100 μM): 15265
ATP Citrate Lysase band Normalized Intensity ([4]; HASMC (Table 35), 22 G, 50 μM): 15857
ATP Citrate Lysase band Normalized Intensity ([4]; HASMC (Table 35), 22 G, 100 μM): 13892
ATPCL Average Normalized Intensity ([4]; HDFa, 50 μM): ~7500
ATPCL Average Normalized Intensity ([4]; HDFa, 100 μM): ~25000
ATP Citrate Lysase band Normalized Intensity ([4]; HepG2, 5 g, 50 μM): 24106
ATP Citrate Lysase band Normalized Intensity ([4]; HepG2, 5 g, 100 μM): 22463
ATP Citrate Lysase band Normalized Intensity ([4]; HepG2, 22 G, 50 μM): 31235
ATP Citrate Lysase band Normalized Intensity ([4]; HepG2, 22 G, 100 μM): 50588
ATPCL Average Normalized Intensity ([4]; MCF-7, 50 μM): ~7500
ATP Citrate Lysase band Normalized Intensity ([4]; PACA2, 5 g, 50 μM): 8027
ATP Citrate Lysase band Normalized Intensity ([4]; PACA2, 5 g, 100 μM): 4942
ATP Citrate Lysase band Normalized Intensity ([4]; PACA2, 22 G, 50 μM): 9537
ATP Citrate Lysase band Normalized Intensity ([4]; PACA2, 22 G, 100 μM): 14901
Regulation (mRNA) at 6 hours [5]: Down regulated
Regulation (mRNA) at 24 hours [5]: Down regulated
